Measured values from EP4656642A1, “ESTROGEN RECEPTOR PROTEOLYSIS TARGETING CHIMERA COMPOUND AND USE THEREOF” (GAN & LEE PHARM CO., LTD, priority 2023, dated 2024).
pIC50: −log10 of the molar value.

What was measured:
Format in all cases: cell-based
MCF-7 cells = assay: Inhibition of cell proliferation of MCF-7 cells (CCK-8, 9 days); conditions: treated for 9 days, CCK-8 kit (Table 6)
Excerpt: Test Example 4 Inhibitory effect of the PROTAC compounds disclosed in the present disclosure on cell proliferation of MCF-7 cells
The complete medium required for MCF-7 cells (source ATCC) was DMEM (gibco, Product number :11995-065) basal medium containing 10% fetal bovine serum. MCF-7 cells were inoculated in 96-well plates at a density of 800 cells/well, and different concentrations of the PROTAC compounds 1-55 provided in the embodiments of the present disclosure and a positive control sample ARV-471 (source: Innochem) were prepared to treat cells, and cells were treated at 37°C in a cell culture incubator with 5% CO2 for 9 days. Cell viability was detected using a CCK -8 kit (Beyotime , Product number: C0040) according to the manufacturer's instruction. […] Table 5 IC50 values for inhibition of the proliferation of MCF-7 cells by the PROTAC compounds of the present disclosure and positive control sample

ERα [1] = target: T1, ERα (Homo sapiens, UniProt P03372); assay: Degradation of ERα in MCF-7 cells (immunoblotting, 4 h)
T1 sequence (P03372 1-595): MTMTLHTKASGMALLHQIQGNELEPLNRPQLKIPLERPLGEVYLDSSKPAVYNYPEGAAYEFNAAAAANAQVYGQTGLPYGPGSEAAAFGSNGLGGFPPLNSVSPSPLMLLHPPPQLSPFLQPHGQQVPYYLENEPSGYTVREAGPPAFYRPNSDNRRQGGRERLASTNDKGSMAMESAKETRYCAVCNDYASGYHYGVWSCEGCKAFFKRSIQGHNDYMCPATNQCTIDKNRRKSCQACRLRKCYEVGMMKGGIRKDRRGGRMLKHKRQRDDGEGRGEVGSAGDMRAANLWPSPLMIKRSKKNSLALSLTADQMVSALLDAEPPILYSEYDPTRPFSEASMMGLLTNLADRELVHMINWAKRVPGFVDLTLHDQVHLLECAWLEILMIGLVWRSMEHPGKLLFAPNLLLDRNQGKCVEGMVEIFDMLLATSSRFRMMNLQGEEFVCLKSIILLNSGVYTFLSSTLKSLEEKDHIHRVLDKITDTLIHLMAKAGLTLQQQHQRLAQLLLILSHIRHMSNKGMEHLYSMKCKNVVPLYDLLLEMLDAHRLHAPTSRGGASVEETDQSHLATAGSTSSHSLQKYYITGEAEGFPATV
Description: MCF-7 cells were inoculated into 6-well plates at a density of 3×10^5 cells/well and cultured at 37°C, 5% CO2 for 24h. After the cells were attached to the wall, 1µL of the compound solution in dimethyl sulfoxide (final concentration 0.15-1000nM) was added and continued to be cultured in incubator at 37°C with 5% CO2 for 4 h. After 4 h, the culture medium was discarded, and each well was washed once with pre-cooled 1×DPBS, and the cells were lysed with a mixture of 50 µL of RIPA lysis buffer (P0013B, Beyotime) and 1× protease inhibitor (P1005, Beyotime), and then centrifuged at 14,000 g for 30 min at 4°C after resting on ice for 20 min, and the supernatant was carefully collected to detect the protein level of ERα by protein immunoblotting (Immunoblotting).
Protein immunoblotting: The total protein concentration in the collected cell lysate supernatant was determined by BCA Protein Concentration Assay Kit (Enhanced) (P0009, Beyotime). According to the total protein concentration detected by BCA, the protein was adjusted to 1 µg/µL with RIPA lysis buffer and 5× SDS-PAGE protein loading buffer (MB01015, Genscript), and the protein was denatured by water bath at 95°C for 5 min, and then centrifuged after denaturation to enrich the condensate on the wall of the centrifuge tubes as a loading sample. […] At the end of electrophoresis, the proteins in the SDS-PAGE gels were transferred to a PVDF membrane at a constant voltage of 100 V for 60 min. After that, the PVDF membrane corresponding to ERα protein and internal reference protein was cut out and incubated in 1×QµickBlock blocking solution (P0252, Beyotime) for 30 min at room temperature on a shaker. […] Protein profiles were analyzed by Image Studio Lite analysis software for grayscale values. Grayscale correction values were calculated for each sample using the Formula: corrected grayscale value = grayscale value of the target protein /corresponding grayscale value of the internal reference. The degradation rate for the compounds was then calculated by comparing the corrected grayscale values of the compound group to the control group. Table 7 Degradation rate (%) of ERα by the PROTAC compounds of the present disclosure and positive control sample in MCF-7 cells

ERα [2] = target: T1, ERα; assay: Degradation of ERα in T-47D cells (immunoblotting, 4 h); set-up: host or cells: T-47D
Description: T-47D cells were inoculated into 6-well plates at a density of 3×10^5 cells/well and cultured at 37°C, 5% CO2 for 24 h. After the cells were attached to the wall, 1µL of the compound solution in dimethyl sulfoxide (final concentration 0.15-1000 nM) was added and continued to be cultured in the incubator with 5% CO2 at 37°C for 4 h. After 4 h, the culture medium was discarded, and each well was washed once with pre-cooled 1×DPBS, and the cells were lysed with a mixture of 50 µL of RIPA lysis buffer (P0013B, Beyotime) and 1× protease inhibitor (P1005, Beyotime), and then centrifuged at 14,000 g for 30 min at 4°C after resting on ice for 20 min, and the supernatant was carefully collected to detect the protein level of ERα by protein immunoblotting (Immunoblotting).

Row | Compound | pIC50 (MCF-7 cells) | Degradation rate (%) of ERα in MCF-7 cells (ERα [1]; 1nM compound) | Degradation rate (%) of ERα in MCF-7 cells (ERα [1]; 10nM compound) | Degradation rate (%) of ERα in T-47D cells (ERα [2]; 1nM compound) | Degradation rate (%) of ERα in T-47D cells (ERα [2]; 10nM compound)
1 | O=C1CCC(N2Cc3cc4c(cc3C2=O)CCC2(CN(C(=O)CN3CCC5(CCN(c6ccc([C@@H]7c8ccc(O)cc8CC[C@@H]7c7ccccc7)cc6)CC5)C3)C2)O4)C(=O)N1 (stereo partly drawn) [A76] | 4.72 | -6% | 12% | 40% | 68%
2 | O=C1CCC(N2Cc3cc4c(cc3C2=O)OC2(CC4)CN(CC3CCN(C(=O)C4CCN(c5ccc([C@@H]6c7ccc(O)cc7CC[C@@H]6c6ccccc6)cc5)CC4)CC3)C2)C(=O)N1 (stereo partly drawn) [K39] | 7.23 | 30% | 56% | 15% | 69%
3 | C[C@@H]1CN(C(=O)C2CCN(c3cc(F)c(C4c5ccc(O)cc5C[C@@H](C)N4CC(F)F)c(F)c3)CC2)CCC1N1CCC2(CC1)COc1c2ccc2c1CN(C1CCC(=O)NC1=O)C2=O (stereo partly drawn) [I5] | 7.98 | 60% | 56% | 55% | 68%
4 | O=C1CCC(N2Cc3c(ccc4c3OCC43CCN(CC(=O)N4CCC5(CC4)CCN(c4ccc([C@@H]6c7ccc(O)cc7CC[C@@H]6c6ccccc6)cc4)C5)CC3)C2=O)C(=O)N1 (stereo partly drawn) [A72] | 5.16 | 33% | 64% | 39% | 51%
5 | O=C1CCC(N2Cc3c(ccc4c3OCC43CCN(C4CCN(CC5CCN(c6ccc([C@@H]7c8ccc(O)cc8CC[C@@H]7c7ccccc7)cc6)CC5)CC4)CC3)C2=O)C(=O)N1 (stereo partly drawn) [G1] | 8.38 | 25% | 35% | 22% | 53%
6 | O=C1CCC(N2Cc3c(ccc4c3OCC43CCN(C4CCN(S(=O)(=O)C5CCN(c6ccc([C@@H]7c8ccc(O)cc8CC[C@@H]7c7ccccc7)cc6)CC5)CC4)CC3)C2=O)C(=O)N1 (stereo partly drawn) [A122] | 4.83 | 40% | 51% | 56% | 65%
7 | O=C1CCC(N2Cc3c(ccc4c3OCC43CCN(C4CC5(C4)CN(c4ccc([C@@H]6c7ccc(O)cc7CC[C@@H]6c6ccccc6)cc4)C5)CC3)C2=O)C(=O)N1 (stereo partly drawn) [L18] | 6.26 | -6% | 5% | 13% | 8%
8 | O=C1CCC(N2Cc3c(ccc4c3OCC43CCN(C(=O)C4CN(CC5CCN(c6ccc([C@@H]7c8ccc(O)cc8CC[C@@H]7c7ccccc7)cc6)CC5)C4)CC3)C2=O)C(=O)N1 (stereo partly drawn) [J9] | 8.25 | 63% | 69% | 78% | 83%
9 | O=C1CCC(N2Cc3c(ccc4c3OCC43CCN(C(=O)CN4CCN(c5ccc([C@@H]6c7ccc(O)cc7CC[C@@H]6c6ccccc6)cc5)CC4)CC3)C2=O)C(=O)N1 (stereo partly drawn) [H14] | < 4.00 | 8% | -13% | 31% | 27%
10 | CC1(C)CC(N2CCC3(CC2)COc2c3ccc3c2CN(C2CCC(=O)NC2=O)C3=O)CCN1C(=O)C1CCN(c2ccc([C@@H]3c4ccc(O)cc4CC[C@@H]3c3ccccc3)cc2)CC1 (stereo partly drawn) [K28] | 8.09 | 66% | 86% | 62% | 86%
11 | O=C1CCC(N2Cc3c(ccc4c3OCC43CCN(CC4CN(C(=O)C5CCN(c6ccc([C@@H]7c8ccc(O)cc8CC[C@@H]7c7ccccc7)cc6)CC5)C4)CC3)C2=O)C(=O)N1 (stereo partly drawn) [D5] | 6.74 | 61% | 58% | 68% | 80%
12 | O=C1CCC(N2Cc3c(ccc4c3OCC43CCN(C(=O)CN4CCC(Oc5ccc([C@@H]6c7ccc(O)cc7CC[C@@H]6c6ccccc6)cc5)CC4)CC3)C2=O)C(=O)N1 (stereo partly drawn) [H60] | 6.97 | 38% | 35% | 41% | 37%
13 | O=C1CCC(N2Cc3c(ccc4c3OCC43CCN(CC(=O)N4CCC(C#Cc5ccc([C@@H]6c7ccc(O)cc7CC[C@@H]6c6ccccc6)cc5)CC4)CC3)C2=O)C(=O)N1 (stereo partly drawn) [A79] | 8.59 | 45% | 47% | 40% | 60%
14 | O=C1CCC(N2Cc3c(ccc4c3OCC43CCN(C4CCC(OC5CCN(c6ccc([C@@H]7c8ccc(O)cc8CC[C@@H]7c7ccccc7)cc6)CC5)CC4)CC3)C2=O)C(=O)N1 (stereo partly drawn) [K50] | 7.08 | 19% | 72% | 52% | 84%
15 | O=C1CCC(N2Cc3c(ccc4c3OCC43CCN(c4ccc(C(=O)N5CCN(c6ccc([C@@H]7c8ccc(O)cc8CC[C@@H]7c7ccccc7)cc6)CC5)cn4)CC3)C2=O)C(=O)N1 (stereo partly drawn) [J2] | 3.52 | 21% | 41% | 37% | 67%
